# Measurements reported in patent US5446021A, “Agricultural and horticultural compositions inducing resistance in plants against salt- and water-stress” (Nippon Zoki Pharmaceutical Co., Ltd., priority 1988, dated 1995).
# Key:
# [1] = tested on: rice (Oryza sativa L. japonica); experiment: Effects on rice seedlings under salt-stress caused by sodium chloride (NaCl); assay type: in vivo; conditions: 7 days after transplantation, mean ± S.E.
# Method: (§1) A filter paper soaked with an aqueous solution of a test agent was laid in a germination dish. Even-sized seeds of rice (Oryza sativa L. japonica) were selected, washed with an aqueous solution containing 0.5% Tween 20 and 1.0% sodium hypochlorite, and then dried. The gemination dishes were sowed with the said rice seeds.
# (§2) The seeds were treated with the aqueous solution of the test agent only during the germination period (4 days). The five seeds having equal root lengths were transplanted from germination dishes to water culture vessels with/without NaCl-solution, not containing any test drug. Lengths and weights of both shoots and roots were measured 7 days after transplantation.
# (§3) These tests (30° C., 24 h daylight) were repeated 6 times, and the mean value and standard error (S.E.) were obtained.
# azalea cuttings = experiment: Effect on azaleas under salt-stress caused by CaCl2; assay type: in vivo; conditions: cuttings in 1×10^-6 M test solution; 20% CaCl2 sprayed; 30 days after CaCl2 treatment; result in words
# Method: Branches about 20 cm from the top of an azalea bush were cut off. The cuttings were dipped into 50 ml of water of the test solution (compound 9; 1×10^-6 M) in a glass culture tube. The solution was replaced with new solution once a week. Six days after cutting of the branches, a 20% solution of CaCl2, which has been used as an antifreezing agent, was sprayed on the cuttings. Thirty days after the CaCl2 treatment, the rate of azalea budding was measured using the following equation: [formula]
# rice seedlings = experiment: Effects on rice seedlings under water-stress caused by mannitol; assay type: in vivo, Oryza sativa L. japonica; conditions: 25° C., 14 h daylight
# Method: as §1
# as §2, with “transplantation. […]” for “transplantation.”
# Using mannitol instead of NaCl in the similar manner (I) as mentioned above, the effects of the compounds of the present invention inducing resistance against water-stress were studied.
# cucumber seedlings = experiment: Effects on cucumber seedlings under salt-stress caused by NaCl; assay type: in vivo; conditions: 0.5% NaCl for 25 days, 25~32° C., 12 h daylight, n = 5
# Method: Cucumber seeds were treated with the aqueous solution of the test agent during the germination period (3 days). 11 days after transplantation from germination dishes to water culture vessels, 0.5% NaCl-solution was added to the vessels. The cucumber seedlings had been for 25 days cultivated in the culture medium containing NaCl.
# tomato seedlings = experiment: Effects on tomato seedlings under salt-stress caused by NaCl; assay type: in vivo; conditions: 0.5% NaCl for 22 days, 25~30° C., 12 h daylight, n = 12~18
# Method: Tomato seeds were treated with the aqueous solution of the test agent during the germination period (4 days). 9 days after transplantation from germination dishes to water culture vessels, 0.5% NaCl-solution was added to the vessels. The tomato seedlings had been cultivated for 22 days in the culture medium containing NaCl.
# [2] = tested on: rice (Oryza sativa L. japonica); experiment: Rice growth in water culture with NaCl in the medium (no test agent); assay type: in vivo; conditions: for Root length / Shoot length: no test agent, 7 days after transplantation, mean ± S.E.
# Method: as §1, §2, §3
# [3] = 1.0% NaCl, compound 1 × 10^-6 M during germination
# [4] = 1.0% NaCl, compound 1 × 10^-10 M during germination
# [5] = 1.5% NaCl, compound 1 × 10^-4 M during germination
# [6] = 1.5% NaCl, compound 1 × 10^-10-6 M (so in the source) during germination
# [7] = 1.0% NaCl, compound 1 × 10^-4 M during germination (4 days)
# [8] = 1.5% NaCl, compound 1 × 10^-10 M during germination
# [9] = 1.0% NaCl, compound 5 × 10^-4 M during germination
# [10] = 1.0% NaCl, compound 5 × 10^-8 M during germination
# [11] = 1.5% NaCl, compound 5 × 10^-6 M during germination
# [12] = 1.5% NaCl, compound 5 × 10^-10 M during germination
# [13] = 2.5% mannitol, compound 1 × 10^-4 M
# [14] = 2.5% mannitol, compound 1 × 10^-8 M
# [15] = 5.0% mannitol, compound 1 × 10^-4 M
# [16] = 5.0% mannitol, compound 1 × 10^-8 M
# [17] = 1.5% NaCl, compound 5 × 10^-4 M during germination
# [18] = 1.5% NaCl, compound 5 × 10^-8 M during germination
# [19] = 1.0% NaCl, compound 5 × 10^-6 M during germination
# [20] = 1.5% NaCl, compound 1 × 10^-6 M during germination
# [21] = 1.0% NaCl, compound 1 × 10^-8 M during germination
# [22] = 1.5% NaCl, compound 1 × 10^-8 M during germination
smiles,measurement,setting,value
"O=C1[C@@H]2C[C@H](O)CN2C(=O)[C@@H]2C[C@H](O)CN12 [Compound 14, Cyclo(L-aHyp-L-aHyp)]",Root length,[1]; [3],43.2 ± 1.69 mm
same,Shoot length,[1]; [3],31.8 ± 0.57 mm
same,Root length,[1]; [4],38.2 ± 1.57 mm
same,Shoot length,[1]; [4],30.4 ± 0.60 mm
same,Root length,[1]; [5],35.0 ± 1.77 mm
same,Shoot length,[1]; [5],21.8 ± 0.58 mm
same,Root length,[1]; [6],35.3 ± 1.93 mm
same,Shoot length,[1]; [6],22.6 ± 0.83 mm
"CC(C)C[C@@H]1NC(=O)[C@@H]2CCCN2C1=O [Compound 2, Cyclo (L-Leu-L-Pro)]",Root length,[1]; [7],38.2 ± 1.60 mm
same,Shoot length,[1]; [7],30.4 ± 0.60 mm
same,Root length,[1]; [4],37.3 ± 1.69 mm
same,Shoot length,[1]; [4],31.1 ± 0.60 mm
same,Root length,[1]; [5],38.3 ± 1.89 mm
same,Shoot length,[1]; [5],22.3 ± 0.53 mm
same,Root length,[1]; [8],39.2 ± 2.11 mm
same,Shoot length,[1]; [8],21.9 ± 0.53 mm
"O=C1[C@@H]2C[C@@H](O)CN2C(=O)[C@@H]2CCCN12 [Compound 9, Cyclo(L-Pro-L-Hyp)]","Protection of azaleas against salt-stress (rate of azalea budding, FIG. 1)",azalea cuttings,protecting azaleas against salt-stress
same,Root length,[1]; [9],19.5 ± 0.96 mm
same,Shoot length,[1]; [9],28.8 ± 0.99 mm
same,Root length,[1]; [10],21.8 ± 0.86 mm
same,Shoot length,[1]; [10],27.1 ± 0.83 mm
same,Root length,[1]; [11],15.9 ± 0.44 mm
same,Shoot length,[1]; [11],17.3 ± 0.42 mm
same,Root length,[1]; [12],14.0 ± 0.49 mm
same,Shoot length,[1]; [12],16.0 ± 0.64 mm
same,Root length,rice seedlings; [13],67.7 ± 23.84 mm
same,Shoot length,rice seedlings; [13],70.2 ± 3.73 mm
same,Root length,rice seedlings; [14],68.2 ± 10.42 mm
same,Shoot length,rice seedlings; [14],63.4 ± 2.18 mm
same,Root length,rice seedlings; [15],39.6 ± 1.80 mm
same,Shoot length,rice seedlings; [15],30.0 ± 2.29 mm
same,Root length,rice seedlings; [16],46.7 ± 9.51 mm
same,Shoot length,rice seedlings; [16],27.1 ± 1.55 mm
same,Dried stem weight,cucumber seedlings; compound 1 × 10^-6 M during germination (3 days),104.9 ± 7.37 mg
same,Dried stem weight,cucumber seedlings; compound 1 × 10^-8 M during germination (3 days),95.5 ± 3.25 mg
same,Dried stem and leaves weight,tomato seedlings; compound 1 × 10^-6 M during germination (4 days),111.4 ± 8.8 mg
same,Dried stem and leaves weight,tomato seedlings; compound 1 × 10^-8 M during germination (4 days),141.4 ± 14.4 mg
"CC(C)C[C@@H]1NC(=O)[C@@H]2C[C@@H](O)CN2C1=O [Compound 5, Cyclo (L-Leu-L-Hyp)]",Root length,[1]; [9],19.7 ± 0.69 mm
same,Shoot length,[1]; [9],28.7 ± 0.87 mm
same,Root length,[1]; [10],20.5 ± 0.87 mm
same,Shoot length,[1]; [10],25.4 ± 0.83 mm
same,Root length,[1]; [17],13.9 ± 0.61 mm
same,Shoot length,[1]; [17],17.1 ± 0.76 mm
same,Root length,[1]; [18],15.7 ± 0.58 mm
same,Shoot length,[1]; [18],15.6 ± 0.28 mm
"CC[C@H](C)[C@@H]1NC(=O)[C@@H]2C[C@@H](O)CN2C1=O [Compound 4, Cyclo(L-Ile-L-Hyp)]",Root length,[1]; [19],19.9 ± 0.60 mm
same,Shoot length,[1]; [19],30.9 ± 1.24 mm
same,Root length,[1]; [10],21.2 ± 0.68 mm
same,Shoot length,[1]; [10],27.1 ± 0.67 mm
same,Root length,[1]; [18],14.9 ± 0.52 mm
same,Shoot length,[1]; [18],16.0 ± 0.75 mm
same,Root length,[1]; [12],14.7 ± 0.52 mm
same,Shoot length,[1]; [12],16.3 ± 0.66 mm
"O=C1[C@@H]2CCCN2C(=O)[C@@H]2CCCN12 (racemic) [Compound 15, ±Cyclo(Pro-Pro)]",Root length,[1]; [20],42.7 ± 1.65 mm
same,Shoot length,[1]; [20],24.2 ± 0.50 mm
"O=C1[C@@H]2C[C@@H](O)CN2C(=O)[C@@H]2C[C@@H](O)CN12 [Compound 13, Cyclo(L-Hyp-L-Hyp)]",Root length,[1]; [3],38.5 ± 1.66 mm
same,Shoot length,[1]; [3],29.4 ± 0.61 mm
same,Root length,[1]; [21],38.1 ± 2.03 mm
same,Shoot length,[1]; [21],30.5 ± 0.59 mm
same,Root length,[1]; [5],35.6 ± 2.28 mm
same,Shoot length,[1]; [5],21.4 ± 0.69 mm
same,Root length,[1]; [22],37.9 ± 1.58 mm
same,Shoot length,[1]; [22],21.9 ± 0.40 mm
"[Cl-].[Na+] [NaCl, sodium chloride]",Root length,[2]; 0.1% NaCl in water culture,53.3 ± 2.61 mm
same,Shoot length,[2]; 0.1% NaCl in water culture,78.0 ± 1.74 mm
same,Root length,[2]; 0.2% NaCl in water culture,39.7 ± 2.02 mm
same,Shoot length,[2]; 0.2% NaCl in water culture,77.6 ± 1.63 mm
same,Root length,[2]; 0.3% NaCl in water culture,37.8 ± 1.48 mm
same,Shoot length,[2]; 0.3% NaCl in water culture,79.2 ± 1.48 mm
same,Root length,[2]; 0.5% NaCl in water culture,33.8 ± 1.76 mm
same,Shoot length,[2]; 0.5% NaCl in water culture,45.3 ± 1.82 mm
same,Root length,[2]; 0.75% NaCl in water culture,32.9 ± 1.07 mm
same,Shoot length,[2]; 0.75% NaCl in water culture,34.7 ± 0.66 mm
same,Root length,[2]; 1.0% NaCl in water culture,34.0 ± 1.75 mm
same,Shoot length,[2]; 1.0% NaCl in water culture,28.2 ± 0.47 mm
same,Rice growth with NaCl in the medium,"[2]; Table 1, result in words",apparently inhibited
